The source of these data is patent publication US20240351995A1, “(3-PIRYDYL)-QUINAZOLINE” (BASF SE, priority 2021, published 2024).

In assay [1] the test system is Corynespora cassiicola G413A mutant. The experiment in a line: Microtest: activity against Corynespora cassiicola G413A mutant in the microtiterplate test. The assay is classed as cell-based. As to conditions: 31 ppm, relative to active compound-free control (100%). The text has this: (§1) The active compounds were formulated separately as a stock solution having a concentration of 10000 ppm in dimethyl sulfoxide.
(§2) The stock solutions were mixed according to the ratio, pipetted onto a micro titer plate (MTP) and diluted with water to the stated concentrations.
(§3) The measured parameters were compared to the growth of the active compound-free control variant (100%) and the fungus-free blank value to determine the relative growth in % of the pathogens in the respective active compounds.
A spore suspension of Corynespora cassiicola in an aqueous biomalt or yeast-bactopeptone-sodiumacetate solution was then added.

Another assay has as its system Cercospora zeae maydis. The experiment in a line: Microtest: activity against Cercospora zeae maydis in the microtiterplate test. The format is cell-based. As to conditions: 31 ppm; relative to active compound-free control (100%).
Excerpt: as §1, §2, §3
A spore suspension of Cercospora zeae maydis in an aqueous biomalt or yeast-bactopeptone-sodiumacetate solution was then added.

`Cc1cc(C2=NC(C)(C)N(C#N)c3cc(F)ccc32)cnc1C(F)F` [Ex-55]: the “growth of the pathogen (relative growth in %)” value (shortened to “growth … (relative growth in %)”) in assay [1] is 19%.
For `Cc1cc(C2=NC(C)(C)N(C#N)c3ccccc32)cnc1C` [Ex-35], in assay [1], the “growth … (relative growth in %)” value was 19%.
Consider `Cc1cc(C2=NC(C)(C)N(C)c3c2ccc(F)c3F)cnc1C(F)F` [Ex-91], for which the “growth … (relative growth in %)” value was found to be 17% in the assay with Cercospora zeae maydis and 19% in assay [1].
Take `Cc1cc(C2=NC(C)(c3ccccc3)N(C)c3c(F)cccc32)cnc1C(F)F` (racemic) [Ex-60]: the “growth … (relative growth in %)” value in the assay on Cercospora zeae maydis came to 17%; in assay [1], 19%.
In the case of `Cc1cc(C2=NC(C)(C)N(C)c3cc(Cl)ccc32)cnc1C(F)F` [Ex-38], the “growth … (relative growth in %)” value is 17% with Cercospora zeae maydis and 19% in assay [1].
On to `Cc1cc(C2=NC(C)(C)N(C#N)c3c(Cl)cccc32)cnc1C` [Ex-28], for which the “growth … (relative growth in %)” value in assay [1] was 19%.
Same read-out and setting: under `Cc1cc(C2=NC(C)(C)Nc3c(Cl)cccc32)cnc1C` [Ex-23] stands 19%.
Consider `C#Cc1cccc2c1NC(C)(C)N=C2c1cnc(C(F)F)c(C)c1` [Ex-81], for which the “growth … (relative growth in %)” value with Cercospora zeae maydis is 17%.
As to `Cc1cc(C2=NC(C)(CC(C)C)N(C)c3c(F)cccc32)cnc1C(F)F` (racemic) [Ex-32], in assay [1], the “growth … (relative growth in %)” value turned out to be 19%.
Regarding `Cc1cc(C2=NC(C)(C)Nc3c(F)cccc32)cnc1C(F)F` [Ex-5], the “growth … (relative growth in %)” value amounted to 17% in the assay with Cercospora zeae maydis and 19% in assay [1].
Regarding `CCC1(C)N=C(c2cnc(C(F)F)c(C)c2)c2cccc(F)c2N1` (racemic) [Ex-25], in assay [1], the “growth … (relative growth in %)” value turned out to be 19%.
Still for that read-out and setting: the value for `CC(=O)N1c2c(F)cccc2C(c2cnc(C(F)F)c(C)c2)=NC1(C)C` [Ex-20] was 19%; that for `CCCCN1c2c(F)cccc2C(c2cnc(C(F)F)c(C)c2)=NC1(C)C` [Ex-14] was 19%; that for `Cc1ccc2c(c1)N(C)C(C)(C)N=C2c1cnc(C(F)F)c(C)c1` [Ex-40] was 19%.
Same read-out and setting: under `Cc1cc(C2=NC(C)(C)N(CC(C)C)c3c(F)cccc32)cnc1C(F)F` [Ex-15] stands 19%; under `Cc1cc(C2=NC(C)(C)Nc3c(Cl)cccc32)cnc1C(F)F` [Ex-8], 19%.
Consider `Cc1cc(C2=NC(C)(C)N(C)c3c(Cl)cccc32)cnc1C(F)F` [Ex-9], for which the figures for the “growth … (relative growth in %)” value (with Cercospora zeae maydis; in assay [1]) were 17% and 19%, respectively.
The like results for `Cc1cc(C2=NC(C)(C)N(C)c3c(C)cccc32)cnc1C(F)F` [Ex-53] were, in that order, 17% and 19%.
Take `Cc1cc(C2=NC(C)(CC(C)C)N(C#N)c3c(F)cccc32)cnc1C(F)F` (racemic) [Ex-41]: the results for the “growth … (relative growth in %)” value (in the assay with Cercospora zeae maydis; in assay [1]) were 17% and 19%, respectively.
`CCCN1c2c(F)cccc2C(c2cnc(C(F)F)c(C)c2)=NC1(C)C` [Ex-13]: the “growth … (relative growth in %)” value in assay [1] was determined as 19%.
In the case of `Cc1cc(C2=NC(C)(C3CC3)N(C)c3c(F)cccc32)cnc1C(F)F` (racemic) [Ex-56], the “growth … (relative growth in %)” value amounted to 17% in the assay with Cercospora zeae maydis and 19% in assay [1].
In the case of `CCN1c2c(F)cccc2C(c2cnc(C(F)F)c(C)c2)=NC1(C)C` [Ex-7], the “growth … (relative growth in %)” value in assay [1] turned out to be 19%.
With `CCC1(C)N=C(c2cnc(C(F)F)c(C)c2)c2cccc(F)c2N1C` (racemic) [Ex-29], the results for the “growth … (relative growth in %)” value (with Cercospora zeae maydis; in assay [1]) were 17% and 19%, respectively.
In the same order, the values of `Cc1cc(C2=NC(C)(C)N(C)c3c(Cl)cccc32)cnc1C` [Ex-22] are 17% and 19%.
`Cc1cc(C2=NC(C)(CC(C)C)Nc3c(F)cccc32)cnc1C(F)F` (racemic) [Ex-26]: in assay [1], the “growth … (relative growth in %)” value stood at 19%.
For `Cc1cc(C2=NC(C)(C)N(C)c3cc(F)ccc32)cnc1C(F)F` [Ex-36], in assay [1], the “growth … (relative growth in %)” value was found to be 19%.
In the case of `Cc1cc(C2=NC(C)(c3ccccn3)N(C)c3c(F)cccc32)cnc1C(F)F` (racemic) [Ex-61], the “growth … (relative growth in %)” value in the assay on Cercospora zeae maydis is reported as 17%; in assay [1], 19%.
On to `Cc1cc(C2=NC(C)(C)N(C)c3c(Br)cccc32)cnc1C(F)F` [Ex-50], for which the “growth … (relative growth in %)” value with Cercospora zeae maydis is reported as 17%; in assay [1], 19%.
Take `Cc1ccc2c(c1)NC(C)(C)N=C2c1cnc(C(F)F)c(C)c1` [Ex-31]: the “growth … (relative growth in %)” value in assay [1] was 19%.
`Cc1cc(C2=NC(C)(C)N(C)c3c(F)cccc32)cnc1C(F)F` [Ex-6]: the figures for the “growth … (relative growth in %)” value (in the assay with Cercospora zeae maydis; in assay [1]) were 17% and 19%, respectively.
Turning to `Cc1cc(C2=NC(C)(C)N(C#N)c3ccccc32)cnc1C(F)F` [Ex-27], the “growth … (relative growth in %)” value in assay [1] is 19%.
